{"source": "patent US8481574B2", "about": "“Compounds as cannabinoid receptor ligands” (priority 2006, dated 2013)", "origin": "cited, not measured here", "key": {"microglia": {"tested_on": "microglia", "conditions": "in vitro"}, "animal models of pain": {"tested_on": "animal models of pain", "conditions": "animal models of acute thermal pain, persistent pain, inflammatory pain and neuropathic pain"}, "[1]": {"conditions": "at fully efficacious doses"}, "mice": {"tested_on": "mice", "conditions": "model for post-menopausal osteoporosis"}, "rodent models of pain": {"tested_on": "rodent models of pain", "conditions": "rodent models of neuropathic, incisional, and both chronic and acute inflammatory pain"}, "rat": {"tested_on": "rat", "conditions": "rat formalin model of persistent pain"}, "[2]": {"tested_on": "CB1 receptor knockout mice"}, "[3]": {"tested_on": "apolipoprotein E knockout mice", "conditions": "low doses"}}}
{"molecule": "CCCC(C)(C)c1ccc2c(c1)OC(C)(C)[C@@H]1CC=C(C)C[C@@H]21", "note": "[JWH-133]", "values": [{"measurement": "effect on β-amyloid-induced microglial activation and neurotoxicity", "setting": "microglia", "result": "abrogated β-amyloid-induced microglial activation and neurotoxicity"}]}
{"molecule": "CN1CCCCC1Cn1cc(C(=O)c2cc([N+](=O)[O-])ccc2I)c2ccccc21", "note": "(stereo not shown) [AM-1241]", "values": [{"measurement": "analgesic efficacy", "setting": "animal models of pain", "result": "robust analgesic efficacy"}, {"measurement": "CB1 receptor-mediated CNS side effects", "setting": "[1]", "result": "devoid of typical CB1 receptor-mediated CNS side effects"}]}
{"molecule": "SR144528", "values": [{"measurement": "effect on osteoclast activity", "setting": "osteoclast", "result": "inhibit osteoclast activity"}, {"measurement": "effect on ovariectomy-induced bone loss", "setting": "mice", "result": "reverse ovariectomy-induced bone loss"}]}
{"molecule": "COc1ccc2c(c1)c(CCN1CCOCC1)c(C)n2C(=O)c1cccc(Cl)c1Cl", "note": "[GW405833]", "values": [{"measurement": "efficacy in pain models", "setting": "rodent models of pain", "result": "efficacious"}, {"measurement": "CB1 receptor-mediated CNS side effects", "setting": "[1]", "result": "devoid of typical CB1 receptor-mediated CNS side effects"}]}
{"molecule": "CCCCCCC(C)(C)c1cc(OC)c([C@@H]2C=C(CO)[C@@H]3C[C@H]2C3(C)C)c(OC)c1", "note": "[HU-308]", "values": [{"measurement": "antinociceptive response", "setting": "rat", "result": "elicits an antinociceptive response"}]}
{"molecule": "(−)-Δ^9-Tetrahydrocannabinol [Δ^9-THC]", "values": [{"measurement": "analgesic efficacy", "setting": "[2]", "result": "retains some analgesic efficacy"}, {"measurement": "effect on progression of atherosclerotic lesions", "setting": "[3]", "result": "slowed the progression of atherosclerotic lesions"}]}
